Values joined by “and” are separate entries in the source; they are usually repeats but may differ in a detail not shown here. Equal entries are not always repeated. “Also recorded” adds a separate entry of the source. Structures can show the parent of a compound that is named as a salt. Where two headings read alike, the source gives them in different places.
Legend:
[1] = system: resistant gram-negative MBL-based bacteria; assay: MICx: lowest adjuvant concentration giving carbapenem MIC ≤2 mg/L; type: cell-based; details: 25 mg/L Example 26; K66-45 and K34-7; meropenem and doripenem
[2] = system: K. pneumoniae K66-45 (NDM-1); assay: Microbroth dilution MIC of carbapenem with/without inhibitor; type: cell-based; details: K. pneumoniae NDM-1
Experimental: • Plate bacterial strain(s) on appropriate media: • Gram-negative bacteria with ESBLs or carbapenemases: green agar plates with 100 mg/L ampicillin • Gram-negative bacteria without β-lactamases: green agar plates • Gram-positive bacteria (Staphylococci and Enterococci): blood agar plates • Incubate o.n. at 37° C.
(Should be used within 15 min of preparation). • Dilute the 0.5 McFarland suspension 1:100 into MH broth. […] Plate 10 μl of the dilution on MH agar plates (×2). Incubate o.n. at 37° C., count the colonies and calculate the final CFU/ml inoculum in the plate by multiplying the average number of colonies with 10000 and divide by 2. The final inoculum should be between 3-7×10^5 CFU/ml. • Add 50 μl of the prepared bacterial suspension to each well in the microtiter plate except negative growth control.
• Calculate the desired concentration-range and volume of the compounds/antibiotics in the assay. […] Dilute the stock solution in MH broth. Make subsequent 2-fold dilutions in MH broth of the desired concentrations if a concentration range is to be tested (remember the extra dilution factor in the assay plate). Always include extra volume for pipetting. Take into consideration stock solutions that are made in buffers that have an effect on bacterial growth (e.g. DMSO).

VIM-2 = VIM-2 (Escherichia coli, UniProt Q5U7L7); type: biochemical
Experimental: The eluent used was Chelex-treated HEPES 50 mM buffer, pH 7.5. […] In all experiments, 16 aliquots of 250 μL were taken from the PD-10 column runsout and enzyme activity was analysed. Enzyme activity was measured by adding Nitrocefin as a reporter substrate (final concentration of 50 μM).
To investigate if more extreme time-dependent and concentration-dependent conditions could restore enzyme activity, aliquots having final concentrations of 30 nM column-treated enzyme and 1000 μM Zn^2+ on ice and at room temperature over prolonged time.

[3] = system: resistant clinical isolate of Klebsiella pneumoniae harboring NDM-1; assay: Time-kill study with meropenem; type: cell-based; details: Example 26 + 4 mg/L meropenem, irrespective of Example 26 concentration; stays below LOD for 30 hrs
Experimental: Mueller-Hinton broth (MHB) was warmed from fridge temperature cold. […] A sample of Example 26 was dissolved in DMSO.
The 96-well plates were prepared using a multi-channel pipette, adding […] PBS to columns 2-9, or the required number of dilutions needed in the experiment. Each Inoculum was prepared by picking a single colony from the fresh plate that was disperged into 1 mL MHB, the loop was agitated to ensure all the colony comes off the loop. The tube was Vortex mixed, and a 100 μL aliquot was taken from the tube into 9.9 mL of MHB into the media bottle. […] The procedure was repeated for as many samples needed in the study. Aliquots of 5 mL inoculum were transferred to as many media bottles as needed, e.g. 4 mg/L MEM, 4 mg/L MEM+50 μM test substance, 4 mg/L MEM+100 μM test substance. Then […] aliquots were taken from each culture and added to Column 1 on the 96 well plate, e.g. culture 1: 50 μl into A1, […] into B1 etc. for time point 0 h. Then […] MEM was added into each bottle, followed by the required amount of test substance. The bottles were mixed gently to avoid formation of bubbles, and incubated in a secondary container at 37° C. at 180 rpm. Finally, serial dilutions were performed using multi-channel pipette taking 30 μL for column 1, adding to column 2, mixing well, repeating from column 2 to 3 with clean pipette tips.

[4] = Solution stability measured indirectly by MIC studies; type: physicochemical; details: stored up to 8 months at 2-8° C.; 25 mg/L inhibitor; P. aeruginosa VIM-2 and K. pneumonia NDM-1
Text: P. aeruginosa harboring VIM-2 and K. pneumonia bearing NDM-1 was used as two indicator strains.

[5] = system: meropenem-resistant E. coli; assay: Checkerboard MIC assay of Example 26 and meropenem; type: cell-based; details: for some of the E. coli / K. pneumonia strains
Experimental: A checkerboard MIC assay was using the broth dilution method according to CLSI guidelines. […] Dilutions to 4 mg/ml was performed by adding+4.75 ml sterile saline to 0.25 ml of the stock solution, and dilutions to 512 μg/ml was performed by adding 10.9 ml MH-broth to the 4 mg/ml solution. Inoculums of bacterial strains as described in Table 4 were prepared by suspending fresh overnight colonies from 5% horse blood agar were to a turbidity of 0.5 McFarland and further diluted to 1×10^6 CFU/ml in MH-broth. Aliquots of 50 μl of MH-broth were added to each well of polystyrene microtiter plates. […] The plates were incubated at 35° C., 16-20 hours.

rH glyoxylase II = rH glyoxylase II (Homo sapiens, UniProt Q16775); assay: Interaction with zinc-containing human enzyme; type: biochemical; details: 62.5-500 μM, 30 min, 25° C., 0.4 ng/μL enzyme
Experimental: The initial reaction velocity was measured at 405 nm. EDTA was included as a representative example of the APC chelator class described above.

[6] = system: human serum albumin and α1-acid glycoprotein (AGP); details: 500 μM Example 26; HSA:AGP 24:1 up to 140 μM
Experimental: Enzymes in the kit are immobilized at a solid phase. […] Buffer without inhibitor was included as a control. After incubation, the suspensions were centrifuged and diluted 1:10 in 50 mM HEPES buffer pH 7.5 supplemented with 1 μM zinc^2+ and VIM-2 (final concentration 1 nM).

[7] = system: P. stuartii harboring an MBL; assay: MIC of meropenem on strains harboring an MBL (Example 198); type: cell-based; details: P. stuartii (NDM)
[8] = system: Klebsiella pneumoniae strain 50752501 harbouring NDM-1; assay: In vivo infection study in neutropenic mice; design: species or system Klebsiella pneumoniae; host NMRI mice; details: for Score at sampling: sampling T = 5 h; for lower CFU levels compared to vehicle treatment: combination Example 26 (10-100 mg/kg) and meropenem 33 mg/kg
Experimental: The purpose of this study was to investigate the synergy between a typical example of the present invention and a state of art carbapenem in a clinically relevant multiresistant Gram-negative bacterial strain harboring a metallo-β-lactamase in the treatment of live mice infected with the bacterial strain.
The mice were rendered neutropenic by injecting 0.5 ml cyclophosphamide solution intraperitoneally 4 days (approximately 200 mg/kg) and 1 day (approximately 100 mg/kg) prior to inoculation.
Fresh overnight colonies from a 5% Horse Blood Agar plate were suspended and diluted in sterile saline to approximately and 10^7 CFU/ml. Mice were inoculated intraperitoneally with 0.5 ml of the suspension. Approximately ½ hr prior to inoculation, mice were treated orally with 45 μl neurophen (20 mg ibuprofen/ml corresponding to approximately 30 mg/kg) as a pain relief.
Mice were treated subcutaneously in the neck region with.
Colony counts were determined from blood and peritoneal fluid at 1 and 5 hrs post inoculation. […] The mice were sacrificed immediately after blood sampling and a total of 2 ml sterile saline was injected i.p. and the abdomen gently massaged before it was opened and fluid sampled with a pipette. Each sample was then 10 fold serial diluted in saline and 20-μl spots, ranging from undiluted to a 10^6 dilution, were applied on agar plates in duplicates. […] All agar plates were incubated 18-22 hrs at 35° C. in ambient air.

[9] = system: strains producing Klebsiella pneumoniae carbapenemases (KPC); assay: Adjuvant activity with a carbapenem against KPC producers; type: cell-based; details: adjuvant together with a carbapenem
[10] = system: C. freundii harboring an MBL; assay: MIC of meropenem on strains harboring an MBL (Example 198); type: cell-based; details: C. freundii (NDM)
[11] = system: K. pneumoniae harboring an MBL; assay: as above; type: cell-based; details: K. pneumoniae (NDM); each table line a different strain
K. pneumoniae K66-45 = type: cell-based; details: inhibitor 25 mg/L
Experimental: After plating and grown overnight at 37° C., only single colonies, ignoring any touching the edges of the plate, were counted.
10^9 CFU K66-45 (Mueller-Hinton broth, no selection) was plated and grown overnight, 37° C. Only single colonies, ignoring any touching the edges of the plate, were counted.

Compound: CN(C[C@H](O)[C@@H](O)[C@H](O)[C@H](O)CO)C(=O)c1ccc(CN(Cc2ccccn2)Cc2ccccn2)nc1 [Example 26, 6-((bis(pyridin-2-ylmethyl)amino)methyl)-N-methyl-N-((2S,3R,4R,5R)-2,3,4,5,6-pentahydroxyhexyl)nicotinamide]
- potentiates carbapenems with a factor [1]: 32-256 times
- MIC Value in K66-45 (MIC of carbapenem) ([2]; doripenem (DOR) + 25 mg/L Example 26, batches 1-3): 0.25 mg/L and 0.125 mg/L
- MIC Value in K66-45 (MIC of carbapenem) ([2]; meropenem (MEM) + 25 mg/L Example 26, batches 1-3): 0.125 mg/L and 0.25 mg/L
- enzyme activity restored by ZnSO4 (VIM-2; 15 nM impaired VIM-2 from Example 207C spiked with 0-100 μM ZnSO4): 40%
- irreversibility of VIM-2 inhibition (VIM-2; purified VIM-2, PD-10 column, EDTA at 100 μM): irreversibly inhibits VIM-2; also recorded: irreversibly inhibited
- time after which CFU drops to below the limit of detection (LOD) [3]: 5 to 10 h
- solution stability (adjuvant activity in MIC studies after storage) [4]: no loss of activity even after 8 months storage time
- amplification of the effect of meropenem [5]: > 1000 times
- interaction with rH glyoxylase II (rH glyoxylase II): does not interact with rH glyoxylase II
- effect of protein binding on inhibitory activity on VIM-2 [6]: protein binding is not affecting the inhibitory activity
- MIC meropenem + 25 mg/L Example 26 / Example 195 [7]: 0.25 mg/L
- reduction of the CFU levels compared to vehicle treatment ([8]; 10-100 mg/kg Example 26 alone, blood and peritoneal fluid): did not result in reduction of the CFU levels
- Score at sampling ([8]; Example 26 10 mg/kg s.c. + meropenem 33 mg/kg, mice 5-8): 2
- Score at sampling ([8]; Example 26 10 mg/kg s.c. + vehicle, mice 17-20): 2
- Score at sampling ([8]; Example 26 33 mg/kg s.c. + meropenem 33 mg/kg, mice 9-12): 1
- Score at sampling ([8]; Example 26 33 mg/kg s.c. + vehicle, mice 21-24): 1
- Score at sampling ([8]; Example 26 100 mg/kg s.c. + meropenem 33 mg/kg, mice 13-16): 1
- Score at sampling ([8]; Example 26 100 mg/kg s.c. + vehicle, mice 25-28): 1
- lower CFU levels compared to vehicle treatment ([8]; blood): 3.95-4.38 log10
- lower CFU levels compared to vehicle treatment ([8]; peritoneal fluid): 3.57-3.66 log10
- activity against KPC-producing strains [9]: does not show activity

Compound: C[C@@H](N)C(=O)N[C@H](C)C(=O)NCCc1ccc(NC(=O)c2ccc(CN(Cc3ccccn3)Cc3ccccn3)nc2)cc1 [Example 195, N-(4-(2-((R)-2-((R)-2-aminopropanamido)propanamido)ethyl)phenyl)-6-((bis(pyridin-2-ylmethyl)amino)methyl)nicotinamide hydrochloride, reference compound]
- MIC meropenem + 25 mg/L Example 26 / Example 195 [10]: 0.06 mg/L
- MIC meropenem + 25 mg/L Example 26 / Example 195 [11]: 0.06 mg/L
- RF - no of colonies (K. pneumoniae K66-45; MEM 2 mg/L): nc (n.c. = no colonies)
- RF - no of colonies (K. pneumoniae K66-45; MEM 4 mg/L): nc (n.c. = no colonies)
- RF - no of colonies (K. pneumoniae K66-45; MEM 8 mg/L): nc (n.c. = no colonies)
- solution stability (adjuvant activity in MIC studies after storage) [4]: a loss of activity was observed after 5 months storage, and after 8 months the activity was absent
- MIC meropenem + 25 mg/L Example 26 / Example 195 [7]: 0.25 mg/L

— patent US20210221791A1, “COMPOUNDS” (UNIVERSITETET I OSLO, priority 2016, published 2021)
